Values joined by “and” are separate entries in the source; they are usually repeats but may differ in a detail not shown here. Identical values can stand only once. “Also recorded” adds a separate entry of the source. Like-named read-outs stand apart in the source and are kept apart here.
Experiments:
Human Sm Cell L. DMS273 = assay: In vivo activity, SC DMS273 tumor; details: Exp 1596; SC Human Sm Cell L. DMS273 SCID; 6 inj. IV; total dose 7.3 mg/kg
Experimental: (§1) Gross log kill is defined as T-C/3.2 Td where T is the median time in days for the tumors of the treated group to reach 750 mg, C is the median time in days for the tumors of the control group to reach 750 mg, and Td is the tumor volume doubling time.

[1] = test system: fungi, especially strains of Cryptococcus; details: R. E. Schwartz et al. 1990; cited from earlier work
MX-1 Human Breast = assay: In vivo activity, SC MX-1 tumor; parameters: species or system SCID mice; details: Exp 1806; SC MX-1 Human Breast; 8 inj. IV; total dose 12 mg/kg
Experimental: as §1

[2] = test system: murine leukemia (L1210 or P388), murine solid tumor, human solid tumor and low malignancy fibroblast (LML)
M17/0 (Adr. Sens.) = assay: In vivo activity, SC M17/0 tumor; parameters: species or system mice; details: Exp 1833; SC M17/0 (Adr. Sens.); 5 inj. IV; total dose 5.4 mg/kg
Experimental: as §1

H125 Human Adenosq-lung = type: in vivo, SCID mice; details: Exp 1823; SC H125 Human Adenosq-lung; 8 inj. IV; total dose 14.4 mg/kg
Experimental: as §1

microtubule assembly = details: C. D. Smith et al. 1994; compared with vinblastine; cited from earlier work
Toxicity in mice = type: in vivo; details: for cause of lethal toxicity observed during testing: in vivo testing
[3] = test system: murine and human tumors implanted in mice; details: G. Trimurtulu et al. 1994; R. Barrow et al. 1995; cited from earlier work
Mam 16/C = assay: In vivo activity, SC Mam 16/C tumor; parameters: species or system mice
Experimental: as §1

[4] = test system: Mam 16/Taxol (taxol-resistant mammary #16/C/RP); assay: In vivo activity, SC Mam 16/Taxol tumor; parameters: species or system mice; details: Exp 1733, 5 inj. IV, total dose 16.5 mg/kg
Experimental: as §1

LNCaP Human Prostate = assay: In vivo activity, SC LNCaP tumor; parameters: species or system mice; details: Exp 1841, 6 inj. IV, total dose 6.5 mg/kg
Experimental: as §1

[5] = test system: Colon 38 (colon adenocarcinoma #38)
Experimental: as §1

[6] = test system: murine and human tumors implanted in mice; type: in vivo; details: for tumor burden T/C values: summary: Cryptophycin 1 in five early stage murine and two early stage human tumors, Cryptophycin 8 in all tumors tested to date; for in vivo antitumor activity: tumors implanted in mice
Experimental: as §1

[7] = test system: Colon 51 (colon adenocarcinoma #51); assay: In vivo activity, SC Colon 51 tumor; parameters: species or system mice
Experimental: as §1

[8] = test system: human tumor cell lines such as KB and LoVo; assay: Cytotoxicity against human tumor cell lines such as KB and LoVo; type: cell-based
[9] = test system: Panc 03 (pancreatic ductal adenocarcinoma #03); details: for Log Kill: 9 inj. IV
Experimental: as §1

[10] = Solvolysis (methanolysis) of the C-D ester bond; type: physicochemical; details: methanol used in isolation scheme
colon adenocarcinoma #33 = assay: In vivo activity, early stage colon adenocarcinoma #33; parameters: species or system mice; details: 8.1 mg/kg
Experimental: Gross log kill is defined as T-C/3.2 Td where T is the median time in days for the tumors of the treated group to reach 750 mg, C is the median time in days for the tumors of the control group to reach 750 mg, and Td is the tumor volume doubling time (T. H. Corbett et al., Cytotoxic Anticancer Drugs: Models and Concepts for Drug Discovery and Development, pp 35-87; Kluwer: Norwell, 1992).

[11] = test system: tumor (leukemia) and normal cell (CFUGM) lines; type: cell-based; details: μg/disk per compound where printed
[12] = μg/disk differs per compound (0.2-250 μg/disk)
[13] = Exp 1769, SC C38, 15 inj. IV, 45 mg/kg TD
[14] = pancreatic ductal adenocarcinoma #03, 8.1 mg/kg

## COc1ccc(C[C@H]2NC(=O)/C=C/C[C@@H]([C@H](C)[C@H]3O[C@@H]3c3ccccc3)OC(=O)[C@H](CC(C)C)OC(=O)[C@H](C)CNC2=O)cc1Cl [Cryptophycin 1]
Human Sm Cell L. DMS273
  % Body Wt. Loss at Nadir: 0%
  Cures: 0/5
  Log Kill: < 1
[1]
  antifungal activity: very active against fungi, especially strains of Cryptococcus
MX-1 Human Breast
  Cures: 0/5
  Log Kill: 2.0
[2]
  Corbett Assay, Differential in Zone Units: > 400
[2]; [12]
  Corbett Assay, Type of Cytotoxicity: E/T
M17/0 (Adr. Sens.)
  Cures: 0/5
H125 Human Adenosq-lung
  Cures: 0/5
  Log Kill: 1.1
Microtubule assembly
  inhibition of microtubule assembly: irreversibly inhibiting mircotubule assembly
Toxicity in mice
  cause of lethal toxicity observed during testing: attributed to leucopenia
[3]
  activity against subcutaneously transplanted solid tumors in mice: very active against subcutaneously transplanted solid tumors in mice
Mam 16/C; Exp 1720, 5 inj. IV, total dose 13.2 mg/kg
  Cures: 0/5
[4]
  Cures: 0/4
LNCaP Human Prostate
  Cures: 0/5
  Log Kill: < 1
[5]; Exp 1560, SC Colon 38, 8 inj. IV, total dose 10.3 mg/kg
  % Body Wt. Loss at Nadir: Gain
[6]; summary b714
  log kill values, range over trials: <1 to 2
[6]
  tumor burden T/C values: less than 10%
  in vivo antitumor activity: shows antitumor activity; also recorded: very promising activity
[7]; Exp 1636, 7 inj. IV, total dose 28.1 mg/kg
  Cures: 0/5

## COc1ccc(C[C@H]2NC(=O)/C=C/C[C@@H]([C@H](C)[C@H]3O[C@@H]3c3ccccc3)OC(=O)[C@H](CC(C)C)OC(=O)[C@H](C)CNC2=O)cc1 [Cryptophycin 2]
[2]; [12]
  Corbett Assay, Differential in Zone Units: > 400 zone units
  Corbett Assay, Type of Cytotoxicity: E/T

## COc1ccc(C[C@H]2NC(=O)/C=C/C[C@@H]([C@H](C)/C=C/c3ccccc3)OC(=O)[C@H](CC(C)C)OC(=O)[C@H](C)CNC2=O)cc1Cl [Cryptophycin 3]
[2]
  Corbett Assay, Differential in Zone Units: > 400
[2]; [12]
  Corbett Assay, Type of Cytotoxicity: E/T
[8]
  IC50's: 2 to 4 ng/mL

## COc1ccc(C[C@H]2NC(=O)/C=C/C[C@@H]([C@H](C)/C=C/c3ccccc3)OC(=O)[C@H](CC(C)C)OC(=O)[C@H](C)CNC2=O)cc1 [Cryptophycin 4]
[2]; [12]
  Corbett Assay, Differential in Zone Units: > 400 zone units
  Corbett Assay, Type of Cytotoxicity: E/T

## COc1ccc(C[C@H]2NC(=O)/C=C/C[C@@H]([C@H](C)[C@@H](O)[C@@H](Cl)c3ccccc3)OC(=O)[C@H](CC(C)C)OC(=O)[C@H](C)CNC2=O)cc1Cl [Cryptophycin 8]
[9]; Exp 1825, SC P03, 11 inj. IV, 106 mg/kg TD
  Cures: 0/5
[2]
  Corbett Assay, Differential in Zone Units: > 500
[2]; [12]
  Corbett Assay, Type of Cytotoxicity: E/T
Toxicity in mice
  cause of lethal toxicity observed during testing: attributed to leucopenia
Mam 16/C; Exp 1885, 7 inj. IV, 21.3 mg/kg TD
  Cures: 0/5
[5]; [13]
  Log Kill: None
  T/C: > 100%
[5]; Exp 1887B, SC C38, 6 inj. IV, 30 mg/kg TD
  % Body Wt. Loss at Nadir: -2%
[6]; summary b279
  Cures: some cures
  gross log kill activity ratings: +++ to ++++
[6]
  tumor burden T/C values: < 10%
[7]; Exp 1900, 9 inj. IV, 67.5 mg/kg TD
  Cures: 0/5

## CC(C)C[C@@H]1OC(=O)[C@H](C)CNC(=O)[C@@H](Cc2ccc(O)c(Cl)c2)NC(=O)/C=C/C[C@@H]([C@H](C)[C@H]2O[C@@H]2c2ccccc2)OC1=O [Cryptophycin 16]
[9]; Exp 1878, SC P03, 82 mg/kg TD
  Log Kill: None

## COc1ccc(C[C@H]2NC(=O)/C=C/C[C@@H]([C@H](C)[C@H]3O[C@@H]3c3ccccc3)OC(=O)[C@H](CC(C)C)OC(=O)CCNC2=O)cc1Cl [Cryptophycin 21]
[9]; Exp 1813, SC P03, 27 mg/kg TD
  Log Kill: None
[10]
  susceptibility to methanolysis: much more susceptible to methanolysis than Cryptophycin 1
[6]
  in vivo antitumor activity: inactive

## COc1ccc(CC2NC(=O)CCCC(C(C)C3OC3c3ccccc3)OC(=O)C(CC(C)C)OC(=O)C(C)CNC2=O)cc1Cl (centres unmarked) [Cryptophycin 35]
[6]
  in vivo antitumor activity: Good in vivo activity

## COc1ccc(C[C@H]2NC(=O)/C=C/C[C@@H]([C@H](C)/C=C/c3ccccc3)OC(=O)[C@H](CC(C)C)OC(=O)C(C)(C)CNC2=O)cc1Cl [Cryptophycin 51]
[8]
  IC50's: 2 to 4 ng/mL

## COc1ccc(C[C@H]2NC(=O)/C=C/C[C@@H]([C@H](C)[C@H]3O[C@@H]3c3ccccc3)OC(=O)[C@H](CC(C)C)OC(=O)C(C)(C)CNC2=O)cc1Cl [Cryptophycin 52]
[9]; [14]
  gross (tumor cell) log kill: < 2
  tumor burden T/C: 16%
Toxicity in mice; in mice
  acute and chronic toxicities: greater than Cryptophycin 1
[6]
  in vivo antitumor activity: antitumor activity is seen at sublethal levels; also recorded: comparable in vivo activity to Cryptophycin 1
Colon adenocarcinoma #33
  gross (tumor cell) log kill: < 2
  tumor burden T/C: 4%
[8]
  IC50's: 0.025 to 0.05 ng/mL

## CC(=O)O[C@H]1C(=O)[C@@]2(C)[C@H]([C@H](OC(=O)c3ccccc3)[C@]3(O)C[C@H](OC(=O)[C@H](O)[C@@H](NC(=O)c4ccccc4)c4ccccc4)C(C)=C1C3(C)C)[C@]1(OC(C)=O)CO[C@@H]1C[C@@H]2O [Taxol, taxol, reference compound]
[2]; [12]
  Corbett Assay, Differential in Zone Units: ≥ 400 zone units
  Corbett Assay, Type of Cytotoxicity: M/H/T

## COc1cc([C@@H]2c3cc4c(cc3[C@@H](O[C@@H]3O[C@@H]5CO[C@@H](C)O[C@H]5[C@H](O)[C@H]3O)[C@H]3COC(=O)[C@H]23)OCO4)cc(OC)c1O [VP-16, etoposide, reference compound]
[2]; [12]
  Corbett Assay, Differential in Zone Units: 350 zone units and 530 zone units
[11]
  Valeriote Assay, Differential in Zone Units: 260 zone units
